Test results: US6818665B2, “Treatment of obstructive sleep apnea” (priority 2003, dated 2004)

Test system: OSA patients
Assay: oximeter tests / sleeping registration of OSA patients
Format: in vivo
Text: The medical treatment of OSA must be effective, inexpensive and without any side effects because it must be ongoing for the rest of the patient's life during the sleeping period regardless of the time of the day or night. By conducting regular oximeter tests in connection with the fitting of mechanical assistance, it has been concluded that anti-oxidants, such as tokoferole, has some effect. Hormones that govern the sleep initiation during for example, jet lag, such melatonin that is formed in a gland from the amino-acid tryptophane with serotonin as an intermediate step. […] The corresponding effect has been noticed when the intake has stopped and this effect is normally quicker.
DHEA prevents unwanted complete or total (100%) relaxation of the muscles in the throat region caused melatonin. […] ACTH may be used to increase the production of DHEA. Melatonin may be taken as tablets and lasts about 24 hours. Preferably, melatonin is taken at night. A suitable melatonin dose may be about 0.5-5 mg. DHEA may also be taken as tablets and lasts about 24 hours. Preferably, DHEA is taken in the morning. A suitable DHEA dose may be about 1-5 mg. Of course, melatonin and DHEA may be administered at other times of the day.

C[C@]12CC[C@H](O)CC1=CC[C@@H]1[C@@H]2CC[C@]2(C)C(=O)CC[C@@H]12 [DHEA, dehydroepiandrosterone]
effect of parallel intake on the desired effect (reduced desaturations and SpO2 reduction) (parallel intake with melatonin, especially in combination with ACTH): synergistic increase of the desired effect

COc1ccc2[nH]cc(CCNC(C)=O)c2c1 [melatonin, 5-metoxy-N-acetyletryptamine]
effect on the sleeping registration of OSA patients (number of desaturations and level of SpO2 reduction below 90%) (low dose 0.5-5 mg depending on age, 10-80 years): distinct effect | time to optimal effect (regular intake): after a couple of weeks

tokoferole
effect in regular oximeter tests (anti-oxidants, oximeter tests in connection with the fitting of mechanical assistance): some effect
